Reference: ChEMBL document CHEMBL1201862, “PubChem BioAssay data set” (2004)
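Interpolation was linear, between the two tested concentrations surrounding the appropriate level; five concentrations were tested over 48 hours in 96-well plates. Here, GI50 denotes the concentration required for 50% inhibition of growth.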 Activity calls are given as the source filed them. No stated cut-off is given here; in the data, active = GI50 up to about 1.1 µM and inactive = higher.

What was measured:
Experiment in all cases: NCI tumour cell line growth inhibition, 48 h
SR = tested on: SR
DU-145 = tested on: DU-145
T47D = tested on: T47D
RPMI-8226 = tested on: RPMI-8226
MDA-MB-231 = tested on: MDA-MB-231
SK-MEL-2 = tested on: SK-MEL-2
OVCAR-5 = tested on: OVCAR-5
NCI-H226 = tested on: NCI-H226
UO-31 = tested on: UO-31
Hs-578T = tested on: Hs-578T
M14 = tested on: M14
IGROV-1 = tested on: IGROV-1
SF-268 = tested on: SF-268
SF-539 = tested on: SF-539
SK-OV-3 = tested on: SK-OV-3
HT-29 = tested on: HT-29
CAKI-1 = tested on: CAKI-1
OVCAR-4 = tested on: OVCAR-4
SW-620 = tested on: SW-620
K562 = tested on: K562

SMILES | GI50 (SR) | GI50 (DU-145) | GI50 (T47D) | GI50 (RPMI-8226) | GI50 (MDA-MB-231) | GI50 (SK-MEL-2) | GI50 (OVCAR-5) | GI50 (NCI-H226) | GI50 (UO-31) | GI50 (Hs-578T) | GI50 (M14) | GI50 (IGROV-1) | GI50 (SF-268) | GI50 (SF-539) | GI50 (SK-OV-3) | GI50 (HT-29) | GI50 (CAKI-1) | GI50 (OVCAR-4) | GI50 (SW-620) | GI50 (K562)
CC1OC(Oc2c(-c3cc(O)c(O)c(O)c3)oc3cc(O)cc(O)c3c2=O)C(O)C(O)C1O (configuration not stated) | 96.8 µM (inactive) | > 100 µM (inactive) | > 100 µM (inactive) | > 100 µM (inactive) | 87.9 µM (inactive) | > 100 µM (inactive) | > 100 µM (inactive) | > 100 µM (inactive) | > 100 µM (inactive) | > 100 µM (inactive) | > 100 µM (inactive) | > 100 µM (inactive) | > 100 µM (inactive) | > 100 µM (inactive) | > 100 µM (inactive) | > 100 µM (inactive) | > 100 µM (inactive) | > 100 µM (inactive) | > 100 µM (inactive) | 
CCC1=C(c2ccc(OC)cc2)CC[C@]2(CCNC2=O)[C@@H]1C | 24.2 µM (inactive) | 33.3 µM (inactive) | 32.4 µM (inactive) | 16.3 µM (inactive) | 39.1 µM (inactive) | 21.3 µM (inactive) | 31.1 µM (inactive) | 37.9 µM (inactive) | 21.4 µM (inactive) | 24.5 µM (inactive) | 26.4 µM (inactive) | 40.3 µM (inactive) | 33.1 µM (inactive) | 28.2 µM (inactive) | 45.8 µM (inactive) | 23.2 µM (inactive) | 48.3 µM (inactive) | 22 µM (inactive) | 44.2 µM (inactive) | 21.5 µM (inactive)
COc1ccc(C2C(C=O)C(N3CCN(C)CC3)=Nc3nc4ccccc4n32)cc1 (configuration not stated) | 0.0382 µM (active) | 17.8 µM (inactive) | 11.7 µM (inactive) | 2.35 µM (inactive) | 12.1 µM (inactive) | 13.1 µM (inactive) | 23.3 µM (inactive) | 16.7 µM (inactive) | 14.4 µM (inactive) | 33 µM (inactive) | 17.4 µM (inactive) | 16.3 µM (inactive) | 16.6 µM (inactive) | 22.1 µM (inactive) |  | 15.8 µM (inactive) | 19.1 µM (inactive) | 8.18 µM (inactive) | 17.3 µM (inactive) | 1.08 µM (active)
COc1ccc(OC)c(CCc2cc(OC)ccc2OC)c1 | 0.379 µM (active) | 5.19 µM (inactive) | > 2.12 µM (inactive) | 2.82 µM (inactive) | 3.66 µM (inactive) | 1.49 µM (inactive) | > 8.71 µM (inactive) | 5.33 µM (inactive) | 5.55 µM (inactive) | 2.69 µM (inactive) | 2.09 µM (inactive) | 1.69 µM (inactive) | 7.76 µM (inactive) | 2.07 µM (inactive) | 4.33 µM (inactive) | 1.06 µM (active) | 3.92 µM (inactive) | > 10 µM (inactive) | 0.935 µM (active) | 0.912 µM (active)
O=C(/C=C(\Nc1ccccc1O)c1ccccc1)C(=O)NC12CC3CC(CC(C3)C1)C2 | 5.33 µM (inactive) | > 10 µM (inactive) | > 10 µM (inactive) | 4.99 µM (inactive) | > 10 µM (inactive) | > 10 µM (inactive) | 8.45 µM (inactive) | > 10 µM (inactive) | > 10 µM (inactive) | > 10 µM (inactive) | > 10 µM (inactive) | > 10 µM (inactive) | > 10 µM (inactive) | 8.93 µM (inactive) | > 10 µM (inactive) | 2.41 µM (inactive) | > 10 µM (inactive) | > 10 µM (inactive) | > 10 µM (inactive) | > 10 µM (inactive)
CC(C)[Si]1(C(C)C)OCC2OC(N3C(=O)NC(=O)C[C@@H]3C(O)c3ccccc3)CC2O[Si](C(C)C)(C(C)C)O1 (some centres not stated) | 1.68 µM (inactive) | 13.2 µM (inactive) | 2.69 µM (inactive) | 4.31 µM (inactive) | 5.86 µM (inactive) | 13.4 µM (inactive) | 13.5 µM (inactive) | 2.15 µM (inactive) | 10.8 µM (inactive) | 3.3 µM (inactive) | 12.7 µM (inactive) | 4.74 µM (inactive) | 4.14 µM (inactive) | 17 µM (inactive) | 5.71 µM (inactive) | 2.48 µM (inactive) | 15.4 µM (inactive) | 4.51 µM (inactive) | 3.4 µM (inactive) | 2.76 µM (inactive)
CCOC(=O)c1nc2ccc(C(F)(F)F)cc2nc1Oc1ccc(F)cc1 | > 100 µM (inactive) | > 100 µM (inactive) | > 100 µM (inactive) | > 100 µM (inactive) | > 100 µM (inactive) | > 100 µM (inactive) |  | > 100 µM (inactive) | > 100 µM (inactive) | > 100 µM (inactive) | > 100 µM (inactive) | > 100 µM (inactive) | > 100 µM (inactive) | > 100 µM (inactive) | > 100 µM (inactive) | > 100 µM (inactive) | > 100 µM (inactive) | > 100 µM (inactive) | > 100 µM (inactive) | 42.3 µM (inactive)
